Like-named read-outs stand apart in the source and are kept apart here.
Columns and labels:
[1] = test system: Rhizoctonia solani; assay: Inhibition of fungal growth assay (radial growth on PDA); conditions: for IC50 (% of stock solution) on growth of R. solani: potato dextrose agar, 24 hour culture at 22° C.
Experimental: Inhibition of fungal growth assay. The Rhizoctonia solani (R. solani) strain was isolated from sclerotia on the skin of a potato and was maintained in culture on potato dextrose agar (PDA) at room temperature (22° C.). To assess the effects of the compositions on fungal growth, 10 microliters of the test compositions diluted in sterile distilled water was placed in the wells of a 12-well tissue culture plate and 1 milliliter of PDA was added by pipette to each well. The plate was agitated to distribute the test composition evenly throughout the agar (distilled water alone was used as control) and then the agar was allowed to set. Plugs of agar containing fungal hyphae (3×3 millimeters) from an established fungal culture were cut out using a scalpel and inserted into holes cut into the centre of the agar in each well of the 12-well plate, which was then cultured at room temperature. To assess the effects of compositions on radial fungal growth, the diameter of the fungal hyphae was measured twice at a 90° angle using a ruler and the average diameter in millimeters was calculated. Concentrations of compositions required to inhibit the radial growth of R. solani by 50% (IC50) were determined graphically.

[2] = pH of diluted compositions and components; type: physicochemical; conditions: 1% suspension in water
[3] = test system: Rhizoctonia solani
Experimental: To assess the effects of composition on fungal growth, 10 microliters of the test compositions diluted in sterile distilled water were placed in the wells of a 12-well tissue culture plate and 1 milliliter of PDA was added by pipette to each well. The plate was agitated to distribute the test composition evenly throughout the agar (distilled water alone was used as control) and then the agar was allowed to set. Plugs of agar containing fungal hyphae (3×3 millimeters) from an established fungal culture were cut out using a scalpel and inserted into holes cut into the centre of the agar in each well of the 12-well plate, which was then cultured at room temperature (22° C.). To assess the effects of compositions on radial fungal growth, the diameter the fungal hyphae was measured twice at a 90° angle using a ruler and the average diameter in millimeters was calculated. If no fungal growth could be detected by eye, the cultures were observed by phase microscopy (40×) to confirm that there was no growth (NG) as judged by visual examination.
To assess the effects of compounds and compositions on sclerotia formation, the R. solani cultures were examined daily and radial fungal growth was measured until the cultures were confluent after which time the development of white (immature) sclerotia and mature (black pigmented) sclerotia was noted and the number of mature sclerotia was counted on day 10 of culture.

[4] = test system: spores of B. cinerea; assay: Sporicidal assay (1) with sodium nitrite, B. cinerea; type: cell-based, Botrytis cinerea; conditions: test item 1%, 30 min;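 also: score 0 no growth 1 reduced growth 2 control-level growth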
[5] = test system: spores of F. oxysporum; assay: Sporicidal assay (1) with sodium nitrite, F. oxysporum; also: key: 2* = Control growth; 1 = Reduced growth; 0 = No growth; type: cell-based, Fusarium oxysporum f. sp. cubense; conditions: test item 1%, 30 min

## [Cl-].[Cu+2].[Cu+2].[OH-].[OH-].[OH-] [CuOCl-TP, copper oxychloride]
[1]
  IC50 (% of stock solution) on growth of R. solani: 1.8 % of stock solution
[2]
  pH of a 1% suspension in water: 6.2

## O=C(O)CNCP(=O)(O)O [Glyphosate, 2-[(phosphonomethyl)amino] acetic acid]
[3]; 0.27 g/L (Table 11)
  Day 1 growth in mm: 20 mm
  Day black SCL 1st seen: 5
  Day growth confluent: 2
  Day white SCL 1st seen: 3
  No. black SCL on day 10: >20
[3]; 0.8 g/L (Table 11)
  Day 1 growth in mm: 14 mm
  Day black SCL 1st seen: 6
  Day growth confluent: 2
  Day white SCL 1st seen: 3
  No. black SCL on day 10: 8
[3]; 2.7 g/L (Table 11)
  Day 1 growth in mm: 8 mm
  Day black SCL 1st seen: 8
  Day growth confluent: 6
  Day white SCL 1st seen: 6
  No. black SCL on day 10: 4
[3]; 8 g/L (Table 11)
  Day 1 growth in mm: 6 mm
  No. black SCL on day 10: 0

## NCP(=O)(O)O [AMPA, aminomethyl phosphonic acid]
[3]; 0.1 g/L (Table 11)
  Day 1 growth in mm: 20 mm
  Day black SCL 1st seen: 5
  Day growth confluent: 2
  Day white SCL 1st seen: 3
  No. black SCL on day 10: >20
[3]; 0.3 g/L (Table 11)
  Day 1 growth in mm: 19 mm
  Day black SCL 1st seen: 8
  Day growth confluent: 2
  Day white SCL 1st seen: 3
  No. black SCL on day 10: >20
[3]; 1 g/L (Table 11)
  Day 1 growth in mm: 17 mm
  Day black SCL 1st seen: 9
  Day growth confluent: 2
  Day white SCL 1st seen: 5
  No. black SCL on day 10: 5

## O.O.O.O.O.O=S(=O)([O-])[O-].[Cu+2] [CuSO4, copper sulfate pentahydrate]
[1]
  IC50 (% of stock solution) on growth of R. solani: 0.39 % of stock solution
[4]; NaNO2 0 mM
  Fungal growth score, spores of B. cinerea: 2
[4]; NaNO2 1 mM
  Fungal growth score, spores of B. cinerea: 2
[4]; NaNO2 3 mM
  Fungal growth score, spores of B. cinerea: 2
[4]; NaNO2 10 mM
  Fungal growth score, spores of B. cinerea: 2
[4]; NaNO2 30 mM
  Fungal growth score, spores of B. cinerea: 2
[4]; NaNO2 100 mM
  Fungal growth score, spores of B. cinerea: 0
[5]; NaNO2 0 mM
  Fungal growth score, spores of F. oxysporum: 2
[5]; NaNO2 1 mM
  Fungal growth score, spores of F. oxysporum: 2
[5]; NaNO2 3 mM
  Fungal growth score, spores of F. oxysporum: 2
[5]; NaNO2 10 mM
  Fungal growth score, spores of F. oxysporum: 2
[5]; NaNO2 30 mM
  Fungal growth score, spores of F. oxysporum: 2

## O=S(=O)([O-])[O-].[Zn+2] [ZnSO4, zinc sulfate]
[1]
  IC50 (% of stock solution) on growth of R. solani: 0.33 % of stock solution
[4]; NaNO2 0 mM
  Fungal growth score, spores of B. cinerea: 2
[4]; NaNO2 1 mM
  Fungal growth score, spores of B. cinerea: 2
[4]; NaNO2 3 mM
  Fungal growth score, spores of B. cinerea: 2
[4]; NaNO2 10 mM
  Fungal growth score, spores of B. cinerea: 2
[4]; NaNO2 30 mM
  Fungal growth score, spores of B. cinerea: 2
[4]; NaNO2 100 mM
  Fungal growth score, spores of B. cinerea: 1

## O=[PH]([O-])O.[K+] [Potassium phosphite, potassium phosphite]
[1]
  IC50 values with R. solani (fungal growth): ~400 µg/mL
[3]; 10 mg/L (Table 9)
  Day 1 growth in mm: 19 mm
  Day black SCL 1st seen: 5
  Day growth confluent: 2
  Day white SCL 1st seen: 3
  No. black SCL on day 10: 9
[3]; 20 mg/L (Table 9)
  Day 1 growth in mm: 19 mm
  Day black SCL 1st seen: 7
  Day growth confluent: 2
  Day white SCL 1st seen: 4
  No. black SCL on day 10: 2
[3]; 40 mg/L (Table 9)
  Day 1 growth in mm: 19 mm
  Day growth confluent: 2
  No. black SCL on day 10: 0
[3]; 80 mg/L (Table 9)
  Day 1 growth in mm: 18 mm
  Day growth confluent: 2
  No. black SCL on day 10: 0
[3]; 160 mg/L (Table 9)
  Day 1 growth in mm: 15 mm
  Day growth confluent: 3
  No. black SCL on day 10: 0

Source: patent US11395492B2, “Antimicrobial and agrochemical compositions” (Myco Sciences Limited, priority 2015, dated 2022)
